Read-outs that look alike come from different tables or passages of the source.
Tests used:
[1] = biological target: human Nav 1.5 (Homo sapiens (Human), UniProt Q14524); assay: Nav 1.5 IonWorks Quattro (IWQ) in vitro assay; format: cell-based
Protocol: Nav 1.7 or Nav 1.5 Ion Works Quattro (IWQ) In Vitro Assay
HEK 293 Cells stably transfected with either human Nay 1.7 or human Nay 1.5 were recorded in population patch-clamp mode with the IonWorks® Quattro automated electrophysiology system in accordance with the manufacturer's specifications (Molecular Devices, LLC, Sunnyvale, Calif.). Sodium channel currents were measured in response to a train of depolarizations that induced successively greater inactivation.
Cells were held at −110 mV for three seconds (Nav 1.7) or half a second (Nav 1.5) from a holding voltage of −15 mV, then put through a series of 26 pulses of 150 msec duration to −20 mV at a frequency of 5 Hz. Cells were then left unclamped for a period of 3 to 8 minutes while a single concentration of test compound was added. Cells were then reclamped and put through the same voltage protocol. Current at the end of the 26th pulse to −20 mV was subtracted from the peak current evoked by the 26th pulse to −20 mV to correct for leak current. Percent block was calculated for each concentration in duplicate, and IC50 curves were fitted to percent block as a function of concentration.

[2] = biological target: human Nav1.7 (Homo sapiens (Human), UniProt Q15858); assay: Nav 1.7 in vitro PatchXpress (PX) assay; format: cell-based
Protocol: HEK 293 cells stably transfected with human Nav1.7 were recorded in whole cell voltage clamp mode with the PatchXpress automated electrophysiology system (Molecular Devices, LLC, Sunnyvale, Calif.). Compound effects were measured on a partially inactivated state of the sodium channel. Cells were clamped to a holding potential yielding 20 to 50% inactivation. To elicit sodium current, channels were activated by pulsing to −10 mV for 20 msec. This voltage protocol was repeated at a rate of 0.1 Hz throughout the experiment. A single concentration of test compound was applied to cells for a duration of 3 minutes. Peak sodium current was measured at the end of the compound addition period to determine percent inhibition. Three to five cells were tested per concentration, and IC50 curves were fitted to percent inhibition as a function of concentration.

[3] = human, HEK 293 cells stably transfected with human Nav 1.5, in-vitro Nav 1.5 IWQ data, read-out: NAV 1.5 IWQ (IC50)

Chain of human Nav1.7 (Q15858 whole entry): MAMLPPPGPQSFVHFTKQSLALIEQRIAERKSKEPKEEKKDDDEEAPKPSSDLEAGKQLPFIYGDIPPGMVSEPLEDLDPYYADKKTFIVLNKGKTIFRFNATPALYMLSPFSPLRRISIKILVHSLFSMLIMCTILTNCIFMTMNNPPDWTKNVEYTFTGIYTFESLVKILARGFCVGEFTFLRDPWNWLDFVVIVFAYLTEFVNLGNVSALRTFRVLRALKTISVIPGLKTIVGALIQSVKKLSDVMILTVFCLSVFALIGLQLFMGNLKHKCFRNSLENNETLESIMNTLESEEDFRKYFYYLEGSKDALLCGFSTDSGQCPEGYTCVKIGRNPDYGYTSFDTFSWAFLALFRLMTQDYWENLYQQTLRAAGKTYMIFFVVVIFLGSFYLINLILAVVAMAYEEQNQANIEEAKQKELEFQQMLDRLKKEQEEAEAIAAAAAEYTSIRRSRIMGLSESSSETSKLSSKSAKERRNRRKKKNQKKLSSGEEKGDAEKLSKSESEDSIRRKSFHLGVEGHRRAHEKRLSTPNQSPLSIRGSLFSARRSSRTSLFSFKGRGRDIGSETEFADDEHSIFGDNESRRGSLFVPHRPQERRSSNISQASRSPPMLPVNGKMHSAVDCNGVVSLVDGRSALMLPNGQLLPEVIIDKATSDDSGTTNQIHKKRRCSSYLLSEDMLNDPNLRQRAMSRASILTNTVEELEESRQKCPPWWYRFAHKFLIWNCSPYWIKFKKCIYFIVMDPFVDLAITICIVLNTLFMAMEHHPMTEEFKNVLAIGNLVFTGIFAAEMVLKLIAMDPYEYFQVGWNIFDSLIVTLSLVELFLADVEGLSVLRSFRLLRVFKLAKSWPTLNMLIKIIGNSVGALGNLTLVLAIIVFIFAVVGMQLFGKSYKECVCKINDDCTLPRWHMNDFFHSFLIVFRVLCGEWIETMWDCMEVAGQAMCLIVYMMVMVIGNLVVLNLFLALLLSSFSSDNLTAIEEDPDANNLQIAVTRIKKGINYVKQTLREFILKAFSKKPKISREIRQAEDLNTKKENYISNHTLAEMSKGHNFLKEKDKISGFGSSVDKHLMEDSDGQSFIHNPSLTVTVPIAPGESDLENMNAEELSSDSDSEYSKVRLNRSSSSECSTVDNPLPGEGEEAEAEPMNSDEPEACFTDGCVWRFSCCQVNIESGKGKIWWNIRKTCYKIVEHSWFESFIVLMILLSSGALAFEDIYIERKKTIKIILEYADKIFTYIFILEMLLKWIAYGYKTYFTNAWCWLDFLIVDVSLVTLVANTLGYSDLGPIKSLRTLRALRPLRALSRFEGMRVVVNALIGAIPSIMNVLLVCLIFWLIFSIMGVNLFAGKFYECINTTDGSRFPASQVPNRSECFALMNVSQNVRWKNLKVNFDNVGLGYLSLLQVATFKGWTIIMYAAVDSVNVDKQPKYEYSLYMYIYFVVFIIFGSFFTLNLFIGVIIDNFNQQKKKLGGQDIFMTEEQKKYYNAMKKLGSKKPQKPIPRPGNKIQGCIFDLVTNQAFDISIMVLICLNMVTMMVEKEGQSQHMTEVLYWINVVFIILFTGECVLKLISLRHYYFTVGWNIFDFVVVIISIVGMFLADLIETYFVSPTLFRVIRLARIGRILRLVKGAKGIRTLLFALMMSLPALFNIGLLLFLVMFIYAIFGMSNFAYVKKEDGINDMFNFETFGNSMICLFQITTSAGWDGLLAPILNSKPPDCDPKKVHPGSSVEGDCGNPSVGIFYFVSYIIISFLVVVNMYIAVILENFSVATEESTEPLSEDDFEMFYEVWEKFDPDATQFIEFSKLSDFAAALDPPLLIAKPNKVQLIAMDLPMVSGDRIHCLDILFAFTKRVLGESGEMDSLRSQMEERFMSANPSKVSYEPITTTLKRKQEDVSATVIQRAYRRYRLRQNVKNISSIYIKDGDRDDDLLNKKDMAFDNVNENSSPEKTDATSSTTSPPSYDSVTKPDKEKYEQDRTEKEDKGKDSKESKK
Chain of human Nav 1.5 (Q14524 whole entry): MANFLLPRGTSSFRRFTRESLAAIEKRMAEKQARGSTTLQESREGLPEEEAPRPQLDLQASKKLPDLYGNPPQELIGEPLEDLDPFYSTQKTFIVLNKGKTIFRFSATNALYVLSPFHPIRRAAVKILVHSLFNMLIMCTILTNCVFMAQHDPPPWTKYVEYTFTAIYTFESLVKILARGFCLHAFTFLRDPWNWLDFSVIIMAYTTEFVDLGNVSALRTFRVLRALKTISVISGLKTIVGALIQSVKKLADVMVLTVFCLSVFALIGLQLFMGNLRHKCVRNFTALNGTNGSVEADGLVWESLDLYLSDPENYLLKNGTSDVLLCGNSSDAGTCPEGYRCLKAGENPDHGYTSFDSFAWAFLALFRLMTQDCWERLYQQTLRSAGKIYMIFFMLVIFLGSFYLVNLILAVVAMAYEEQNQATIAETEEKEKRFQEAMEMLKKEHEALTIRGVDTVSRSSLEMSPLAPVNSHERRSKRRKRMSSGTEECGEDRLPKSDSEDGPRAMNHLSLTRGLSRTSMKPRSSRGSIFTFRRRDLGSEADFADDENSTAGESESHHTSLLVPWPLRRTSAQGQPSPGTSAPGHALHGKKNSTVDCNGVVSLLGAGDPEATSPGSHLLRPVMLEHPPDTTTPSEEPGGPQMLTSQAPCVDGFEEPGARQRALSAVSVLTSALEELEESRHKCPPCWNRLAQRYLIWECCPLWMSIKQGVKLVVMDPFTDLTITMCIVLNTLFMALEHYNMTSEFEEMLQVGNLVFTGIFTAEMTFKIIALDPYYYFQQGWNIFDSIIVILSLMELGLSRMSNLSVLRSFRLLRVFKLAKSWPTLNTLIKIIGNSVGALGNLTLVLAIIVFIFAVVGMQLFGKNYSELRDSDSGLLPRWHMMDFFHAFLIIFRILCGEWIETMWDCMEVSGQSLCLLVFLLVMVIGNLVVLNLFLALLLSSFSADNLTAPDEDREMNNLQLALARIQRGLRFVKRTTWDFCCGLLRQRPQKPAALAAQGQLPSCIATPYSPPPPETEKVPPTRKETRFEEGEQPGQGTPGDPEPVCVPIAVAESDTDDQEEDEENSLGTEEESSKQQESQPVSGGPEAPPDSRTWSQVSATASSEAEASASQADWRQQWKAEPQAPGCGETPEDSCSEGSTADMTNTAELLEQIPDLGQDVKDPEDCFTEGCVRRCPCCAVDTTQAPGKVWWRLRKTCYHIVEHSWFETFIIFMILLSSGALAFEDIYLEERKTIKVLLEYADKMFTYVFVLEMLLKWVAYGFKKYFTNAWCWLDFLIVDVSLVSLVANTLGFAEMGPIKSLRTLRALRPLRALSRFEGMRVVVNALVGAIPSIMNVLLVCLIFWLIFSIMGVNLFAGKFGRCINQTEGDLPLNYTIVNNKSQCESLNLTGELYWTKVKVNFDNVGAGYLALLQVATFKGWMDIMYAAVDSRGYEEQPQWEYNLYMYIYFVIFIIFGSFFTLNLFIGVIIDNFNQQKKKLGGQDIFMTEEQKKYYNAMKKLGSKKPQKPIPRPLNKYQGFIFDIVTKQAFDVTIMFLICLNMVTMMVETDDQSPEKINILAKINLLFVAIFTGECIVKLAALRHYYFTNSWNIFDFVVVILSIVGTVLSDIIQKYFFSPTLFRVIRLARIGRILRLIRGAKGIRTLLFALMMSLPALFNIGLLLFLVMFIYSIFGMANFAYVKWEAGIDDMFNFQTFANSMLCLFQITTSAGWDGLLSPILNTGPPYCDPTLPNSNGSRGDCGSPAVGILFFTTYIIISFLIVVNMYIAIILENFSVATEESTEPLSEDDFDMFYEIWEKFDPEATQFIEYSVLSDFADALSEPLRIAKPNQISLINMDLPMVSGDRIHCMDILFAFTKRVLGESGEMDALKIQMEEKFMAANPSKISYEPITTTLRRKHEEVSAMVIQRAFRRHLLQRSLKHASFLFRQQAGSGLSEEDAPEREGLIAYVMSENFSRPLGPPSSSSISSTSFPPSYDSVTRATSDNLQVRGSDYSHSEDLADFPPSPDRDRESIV

IC50 [2] | Structure (SMILES) | IC50 ([1]; read-out: NAV 1.5 IWQ IC50) | other results
59.8 nM | Cc1cc(Cl)cc(Cl)c1Oc1ncc(-c2cc(F)c(C(=O)NS(C)(=O)=O)cc2F)cc1Cl [Example 567, 4-(5-chloro-6-(2,4-dichloro-6-methylphenoxy)-3-pyridinyl)-2,5-difluoro-N-(methylsulfonyl)benzamide] | > 4900 nM | 
42.4 nM | Cc1cc(Cl)cc(Cl)c1Oc1ncc(-c2cc(F)c(C(=O)NS(C)(=O)=O)cc2F)cc1Br [Example 575, 4-(5-bromo-6-(2,4-dichloro-6-methylphenoxy)-3-pyridinyl)-2,5-difluoro-N-(methylsulfonyl)benzamide] | > 4900 nM | 
95 nM | COc1cc(C(=O)NS(C)(=O)=O)ccc1-c1cnc(OCc2ccccc2Cl)c(Cl)c1 [Example 577, 4-(5-chloro-6-((2-chlorobenzyl)oxy)-3-pyridinyl)-3-methoxy-N-(methylsulfonyl)benzamide] | > 3000 nM | 
47.2 nM | Cc1cc(Cl)cc(Cl)c1Oc1ncc(-c2ccc(C(=O)NS(C)(=O)=O)cc2OC(F)F)cc1Cl [Example 585, 4-(5-chloro-6-(2,4-dichloro-6-methylphenoxy)-3-pyridinyl)-3-(difluoromethoxy)-N-(methylsulfonyl)benzamide] | 289 nM | 
82.3 nM | CS(=O)(=O)NC(=O)c1cc(Cl)c(-c2cnc(Oc3ccc(F)c(F)c3F)c(Cl)c2)cc1F [Example 588, 5-chloro-4-(5-chloro-6-(2,3,4-trifluorophenoxy)-3-pyridinyl)-2-fluoro-N-(methylsulfonyl)benzamide] | > 3000 nM | 
68.1 nM | Cc1ccc(Cl)cc1Oc1ncc(-c2cc(F)c(C(=O)NS(C)(=O)=O)cc2Cl)cc1Cl [Example 590, 5-chloro-4-(5-chloro-6-(5-chloro-2-methylphenoxy)-3-pyridinyl)-2-fluoro-N-(methylsulfonyl)benzamide] | > 3000 nM | 
85.6 nM | Cc1ccc(Oc2ncc(-c3cc(F)c(C(=O)NS(C)(=O)=O)cc3Cl)cc2Cl)cc1F [Example 591, 5-chloro-4-(5-chloro-6-(3-fluoro-4-methylphenoxy)-3-pyridinyl)-2-fluoro-N-(methylsulfonyl)benzamide] | > 3000 nM | 
66.1 nM | CS(=O)(=O)NC(=O)c1cc(Cl)c(-c2cnc(Oc3c(Cl)cccc3Cl)c(Cl)c2)cc1F [Example 592, 5-chloro-4-(5-chloro-6-(2,6-dichlorophenoxy)-3-pyridinyl)-2-fluoro-N-(methylsulfonyl)benzamide] | > 3000 nM | 

The next lines start with the molecule.

Structure (SMILES) | IC50 [2] | IC50 ([1]; read-out: NAV 1.5 IWQ IC50) | other results
C[C@@](Oc1ncc(-c2cc(F)c(C(=O)NS(C)(=O)=O)cc2F)cc1Cl)(c1ccccc1)C(F)(F)F (single isomer, unassigned) [Example 804] |  |  | IC50 [1, 3]: > 3000 nM
C[C@](Oc1ncc(-c2cc(F)c(C(=O)NS(C)(=O)=O)cc2F)cc1Cl)(c1ccccc1)C(F)(F)F (single isomer, unassigned) [Example 805] |  |  | IC50 [1, 3]: > 3000 nM
COc1cc(C(=O)NS(C)(=O)=O)ccc1-c1cnc(Oc2cc(Cl)cc(Cl)c2)c(Cl)c1 [Example 348, 4-(5-chloro-6-(3,5-dichlorophenoxy)-3-pyridinyl)-3-methoxy-N-(methylsulfonyl)benzamide] | 34.5 nM | 5740 nM | 
C[C@@](Oc1ncc(-c2cc(F)c(C(=O)NS(C)(=O)=O)cc2F)cc1Cl)(c1ccccc1)C(F)(F)F [Example 566, 4-(5-chloro-6-((1R)-2,2,2-trifluoro-1-methyl-1-phenylethoxy)-3-pyridinyl)-2,5-difluoro-N-(methylsulfonyl)benzamide, 4-(5-chloro-6-((1S)-2,2,2-trifluoro-1-methyl-1-phenylethoxy)-3-pyridinyl)-2,5-difluoro-N-(methylsulfonyl)benzamide] | 73.1 nM | > 3000 nM | 
COc1cc(C(=O)NS(C)(=O)=O)ccc1-c1cnc(OCc2ccc(Cl)cc2)c(Cl)c1 [Example 576, 4-(5-chloro-6-((4-chlorobenzyl)oxy)-3-pyridinyl)-3-methoxy-N-(methylsulfonyl)benzamide] | 70 nM |  | IC50 [1]: > 3000 nM
Cc1cc(C(=O)NS(C)(=O)=O)c(F)cc1-c1cnc(O[C@](C)(c2ccccc2)C(F)(F)F)c(Cl)c1 [Example 587, 4-(5-chloro-6-((1R)-2,2,2-trifluoro-1-methyl-1-phenylethoxy)-3-pyridinyl)-2-fluoro-5-methyl-N-(methylsulfonyl)benzamide, 4-(5-chloro-6-((1S)-2,2,2-trifluoro-1-methyl-1-phenylethoxy)-3-pyridinyl)-2-fluoro-5-methyl-N-(methylsulfonyl)benzamide] | 81.5 nM | > 3000 nM | 
CS(=O)(=O)NC(=O)c1cc(Cl)c(-c2cnc(Oc3cc(F)cc(F)c3F)c(Cl)c2)cc1F [Example 589, 5-chloro-4-(5-chloro-6-(2,3,5-trifluorophenoxy)-3-pyridinyl)-2-fluoro-N-(methylsulfonyl)benzamide] | 49.9 nM | > 3000 nM | 
CC[C@H](Cc1ccccc1)Oc1ncc(-c2cc(F)c(C(=O)NS(C)(=O)=O)cc2Cl)cc1Cl [Example 593, 4-(6-(((1R)-1-benzylpropyl)oxy)-5-chloro-3-pyridinyl)-5-chloro-2-fluoro-N-(methylsulfonyl)benzamide, 4-(6-(((1S)-1-benzylpropyl)oxy)-5-chloro-3-pyridinyl)-5-chloro-2-fluoro-N-(methylsulfonyl)benzamide] | 97.4 nM | > 3000 nM | 
Cc1cc(C(=O)NS(C)(=O)=O)c(F)cc1-c1cnc(O[C@H](C)c2cc(Cl)ccc2Cl)c(Cl)c1 [Example 673, 4-(5-chloro-6-((1R)-1-(2,5-dichlorophenyl)ethoxy)-3-pyridinyl)-2-fluoro-5-methyl-N-(methylsulfonyl)benzamide] |  | > 10000 nM | 
COc1cc(C(=O)NS(C)(=O)=O)ccc1-c1cnc(Oc2ccnc(OC)c2Cl)c(Cl)c1 [Example 832, 4-(5-chloro-6-((3-chloro-2-methoxy-4-pyridinyl)oxy)-3-pyridinyl)-3-methoxy-N-(methylsulfonyl)benzamide] |  |  | IC50 ([2]; in-vitro Nav 1.7 PX data): 92.3 nM
Cc1cc(C(=O)NS(C)(=O)=O)c(F)cc1-c1cnc(-c2cc(F)cc(F)c2)c(Cl)c1 [Example 834, 4-(5-Chloro-6-(3,5-Difluorophenyl)-3-Pyridinyl)-2-Fluoro-5-Methyl-N-(Methylsulfonyl)Benzamide] |  |  | IC50 ([2]; in-vitro Nav 1.7 PX data): 498 nM
Cc1cc(C(=O)NS(C)(=O)=O)c(F)cc1-c1cnc(-c2ccc(Cl)c(Cl)c2)c(Cl)c1 [Example 835, 4-(5-chloro-6-(3,4-dichlorophenyl)-3-pyridinyl)-2-fluoro-5-methyl-N-(methylsulfonyl)benzamide] |  |  | IC50 ([2]; in-vitro Nav 1.7 PX data): 167 nM
COc1ncc(F)cc1-c1cc(-c2cc(F)c(C(=O)NS(C)(=O)=O)cc2F)cnc1OCC(C)C [Example 837, 2,5-Difluoro-4-(5′-Fluoro-2′-Methoxy-2-(2-Methylpropoxy)-3,3′-Bipyridin-5-yl)-N-(Methylsulfonyl)Benzamide] |  |  | IC50 ([2]; in-vitro Nav 1.7 PX data): 810 nM
CC(C)COc1ncc(-c2cc(F)c(C(=O)NS(C)(=O)=O)cc2F)cc1-c1cc(F)cc(F)c1 [Example 838, 4-(5-(3,5-difluorophenyl)-6-(2-methylpropoxy)-3-pyridinyl)-2,5-difluoro-N-(methylsulfonyl)benzamide] |  |  | IC50 ([2]; in-vitro Nav 1.7 PX data): 642 nM

— patent US9663508B2, “Biaryl acyl-sulfonamide compounds as sodium channel inhibitors” (AMGEN INC., priority 2013, dated 2017)
